Key:
Conditions in all cases: incubation time: 72 h
[1] = tested on: BT-474; experiment: normalised viability (% of control), CellTiter-Blue; higher = more viable cells (about 100 = DMSO control)
Experimental: (§1)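 DSRT, CellTiter-Blue viability, 72 h incubation. Signal is normalised to DMSO and benzethonium chloride controls. Value is the normalised response at dose 3.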

[2] = tested on: DU-4475; experiment: as above
Experimental: as §1

[3] = tested on: HCC1599; experiment: as above
Experimental: as §1

[4] = tested on: MDA-MB-453; experiment: as above
Experimental: as §1

[5] = tested on: MFM-223; experiment: as above
Experimental: as §1

[6] = tested on: SK-BR-3; experiment: as above
Experimental: as §1

[7] = tested on: BT-474; experiment: normalised viability (% of control), CellTiter-Blue; higher = more viable cells (about 100 = DMSO control); remark: listed apart in the source
Outline: (§2)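 After 72 h on compound-loaded 384-well plates, breast cancer cell lines received 2.5 µl CellTiter-Blue reagent for 2 h at 37 °C. Fluorescence at 560/590 nm was scaled per plate so that vehicle was 100 and a positive kill control was 0. The value stands for normalised viability at a single listed concentration of the series.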

[8] = tested on: BT-549; experiment: as above
Outline: as §2

[9] = tested on: CAL-120; experiment: as above
Outline: as §2

[10] = tested on: CAL-148; experiment: as above
Outline: as §2

[11] = tested on: CAL-51; experiment: as above
Outline: as §2

[12] = tested on: CAL-85-1; experiment: as above
Outline: as §2

[13] = tested on: DU-4475; experiment: as above; remark: listed apart in the source
Outline: as §2

[14] = tested on: HCC1143; experiment: as above
Outline: as §2

[15] = tested on: HCC1599; experiment: as above; remark: listed apart in the source
Outline: as §2

[16] = tested on: HCC1937; experiment: as above
Outline: as §2

[17] = tested on: HDQ-P1; experiment: as above
Outline: as §2

[18] = tested on: Hs578T; experiment: as above
Outline: as §2

[19] = tested on: MDA-MB-231; experiment: as above
Outline: as §2

[20] = tested on: MDA-MB-436; experiment: as above
Outline: as §2

[21] = tested on: MDA-MB-453; experiment: as above; remark: listed apart in the source
Outline: as §2

[22] = tested on: MDA-MB-468; experiment: as above
Outline: as §2

[23] = tested on: MFM-223; experiment: as above; remark: listed apart in the source
Outline: as §2

[24] = tested on: SK-BR-3; experiment: as above; remark: listed apart in the source
Outline: as §2

[25] = tested on: Hs578T; experiment: drug sensitivity score (DSS), CellTox Green (DSS (AUC-based score)); higher = stronger drug effect (viability inhibition or cytotoxicity); extreme values may be limits of the assay
Outline: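 Using 20 µl of cell suspension per well, breast cancer cell lines were seeded into 384-well plates pre-loaded with compound at 5 concentrations in 10-fold steps across a compound-specific 10,000-fold range. Incubation lasted 72 h, after which CellTox Green fluorescence at 485/520 nm and then CellTiter-Glo luminescence, following 10 min at room temperature, were recorded. Each plate was normalised to 0.1 % DMSO and a positive kill control before the drug sensitivity score was derived from the area under the fitted dose-response curve.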

CO[C@H]1C[C@@H]2CC[C@@H](C)[C@@](O)(O2)C(=O)C(=O)N2CCCC[C@H]2C(=O)O[C@H]([C@H](C)C[C@@H]2CC[C@@H](OC(=O)C(C)(CO)CO)[C@H](OC)C2)CC(=O)[C@H](C)/C=C(\C)[C@@H](O)[C@@H](OC)C(=O)[C@H](C)C[C@H](C)/C=C/C=C/C=C/1C [Temsirolimus]
Conditions | normalised viability [%]
[1], 10 nM | 69.3
[2], 1 nM | 89.8
[3], 10 nM | 90.8
[4], 1 nM | 32
[5], 10 nM | 49.8
[6], 10 nM | 50.5
[7], 1 nM | 80
[7], 100 nM | 58.6
[7], 1000 nM | 66.2
[8], 1 nM | 56.8
[8], 100 nM | 62.9
[8], 1000 nM | 53.4
[9], 1 nM | 70.6
[9], 100 nM | 46.5
[9], 1000 nM | 42.7
[10], 0.3 nM | 74.3
[10], 3 nM | 45.9
[10], 10 nM | 39.4
[11], 0.3 nM | 89.4
[11], 3 nM | 55.5
[11], 10 nM | 37.5
[12], 0.3 nM | 69.3
[12], 3 nM | 58.9
[12], 10 nM | 60.7
[13], 0.3 nM | 95.3
[13], 3 nM | 66.6
[13], 10 nM | 60.2
[14], 1 nM | 75.7
[14], 100 nM | 66.5
[14], 1000 nM | 61
[15], 1 nM | 103
[15], 100 nM | 78.7
[15], 1000 nM | 86.8
[16], 1 nM | 59.5
[16], 100 nM | 68.7
[16], 1000 nM | 54.7
[17], 0.3 nM | 106
[17], 3 nM | 78.4
[17], 10 nM | 82.5
[18], 1 nM | 70.4
[18], 100 nM | 55.1
[18], 1000 nM | 57.6
[19], 1 nM | 73.4
[19], 100 nM | 75.1
[19], 1000 nM | 78.4
[20], 1 nM | 81.8
[20], 100 nM | 80.6
[20], 1000 nM | 69.5
[21], 0.3 nM | 73.5
[21], 3 nM | 26.1
[21], 10 nM | 27.1
[22], 1 nM | 74.6
[22], 100 nM | 68.5
[22], 1000 nM | 62.4
[23], 1 nM | 58.1
[23], 100 nM | 50.5
[23], 1000 nM | 41
[24], 1 nM | 76.1
[24], 100 nM | 54
[24], 1000 nM | 49.7

Conditions | drug sensitivity score
[25] | 22.6

Nc1ccn([C@@H]2O[C@H](CO)[C@@H](O)[C@@H]2O)c(=O)n1 [Cytarabine]
Conditions | normalised viability [%]
[1], 100 nM | 101
[2], 10 nM | 137
[3], 100 nM | 110
[4], 10 nM | 109
[5], 100 nM | 103
[6], 100 nM | 81.2
[7], 10 nM | 103
[7], 1000 nM | 95.7
[7], 10000 nM | 93.4
[8], 10 nM | 87.2
[8], 1000 nM | 65.7
[8], 10000 nM | 62.9
[9], 10 nM | 95.6
[9], 1000 nM | 66.4
[9], 10000 nM | 56.9
[10], 3 nM | 95.9
[10], 30 nM | 68.9
[10], 100 nM | 47.9
[11], 3 nM | 94.1
[11], 30 nM | 91.9
[11], 100 nM | 79.8
[12], 3 nM | 106
[12], 30 nM | 97.4
[12], 100 nM | 104
[13], 3 nM | 121
[13], 30 nM | 87.8
[13], 100 nM | 93.9
[14], 10 nM | 80.5
[14], 1000 nM | 71.4
[14], 10000 nM | 63
[15], 10 nM | 109
[15], 1000 nM | 78.7
[15], 10000 nM | 77.4
[16], 10 nM | 124
[16], 1000 nM | 41.6
[16], 10000 nM | 42.6
[17], 3 nM | 80.6
[17], 30 nM | 94.8
[17], 100 nM | 42.5
[18], 10 nM | 90.4
[18], 1000 nM | 67.8
[18], 10000 nM | 62.3
[19], 10 nM | 100
[19], 1000 nM | 67
[19], 10000 nM | 61.7
[20], 10 nM | 98.2
[20], 1000 nM | 74.3
[20], 10000 nM | 74.1
[21], 3 nM | 101
[21], 30 nM | 111
[21], 100 nM | 94.9
[22], 10 nM | 101
[22], 1000 nM | 68.4
[22], 10000 nM | 57.2
[23], 10 nM | 107
[23], 1000 nM | 95.6
[23], 10000 nM | 97.3
[24], 10 nM | 97.3
[24], 1000 nM | 64.7
[24], 10000 nM | 47.2

Conditions | drug sensitivity score
[25] | 0
